For 60 compounds, IC50, Activity and Weight results are on record in ChEMBL document CHEMBL1139538, “ERbeta ligands. 3. Exploiting two binding orientations of the 2-phenylnaphthalene scaffold to achieve ERbeta selectivity” (J Med Chem, 2005).

Assay [1] has as its target Estrogen receptor beta (Homo sapiens, UniProt Q92731).
The target of assay [2] is T1, Estrogen receptor (Homo sapiens, UniProt P03372).
T1 sequence (P03372 whole entry): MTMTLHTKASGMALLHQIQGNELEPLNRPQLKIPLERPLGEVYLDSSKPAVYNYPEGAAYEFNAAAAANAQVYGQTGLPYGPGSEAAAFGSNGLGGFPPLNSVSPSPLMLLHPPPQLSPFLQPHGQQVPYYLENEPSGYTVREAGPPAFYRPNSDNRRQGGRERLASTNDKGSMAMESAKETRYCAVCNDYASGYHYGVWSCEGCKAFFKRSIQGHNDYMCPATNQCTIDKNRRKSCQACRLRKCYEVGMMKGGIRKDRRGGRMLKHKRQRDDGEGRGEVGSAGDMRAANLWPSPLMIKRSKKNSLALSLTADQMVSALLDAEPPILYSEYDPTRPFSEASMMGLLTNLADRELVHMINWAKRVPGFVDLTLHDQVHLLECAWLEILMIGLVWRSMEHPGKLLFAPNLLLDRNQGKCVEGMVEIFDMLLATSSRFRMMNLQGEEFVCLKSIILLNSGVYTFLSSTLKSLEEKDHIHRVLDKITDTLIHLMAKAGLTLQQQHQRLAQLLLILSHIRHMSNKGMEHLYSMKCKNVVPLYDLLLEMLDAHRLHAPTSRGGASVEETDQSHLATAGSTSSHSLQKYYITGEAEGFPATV
Description: Inhibition of [3H]17-beta-estradiol binding to human estrogen receptor alpha expressed in Escherichia coli

Assay [3] deals with Rattus norvegicus. The assay can be described thus: Effect of oral administration of 1 mg/kg compound on colon histology (haemoglobin) in HLA-B27 transgenic rats. It counts as functional.
Assay [4] concerns Rattus norvegicus. The assay is described as follows: Effect of oral administration of 10 mg/kg compound on colon histology (haemoglobin) in HLA-B27 transgenic rats. In kind it is functional.
Assay [5] addresses T2, Estrogen receptor (Rattus norvegicus) (UniProt P06211+Q62986).
Description: Effect on uterine weight of immature rats at 2 mg/rat/day dose after 3 days
Assay [6] addresses T2, Estrogen receptor (Rattus norvegicus). This is another data set of the same source.
Description: Effect on uterine weight in immature rats in combination with 17R-ethinyl-17-beta-estradiol after 3 days

Sequence of Estrogen receptor beta (Q92731 whole entry): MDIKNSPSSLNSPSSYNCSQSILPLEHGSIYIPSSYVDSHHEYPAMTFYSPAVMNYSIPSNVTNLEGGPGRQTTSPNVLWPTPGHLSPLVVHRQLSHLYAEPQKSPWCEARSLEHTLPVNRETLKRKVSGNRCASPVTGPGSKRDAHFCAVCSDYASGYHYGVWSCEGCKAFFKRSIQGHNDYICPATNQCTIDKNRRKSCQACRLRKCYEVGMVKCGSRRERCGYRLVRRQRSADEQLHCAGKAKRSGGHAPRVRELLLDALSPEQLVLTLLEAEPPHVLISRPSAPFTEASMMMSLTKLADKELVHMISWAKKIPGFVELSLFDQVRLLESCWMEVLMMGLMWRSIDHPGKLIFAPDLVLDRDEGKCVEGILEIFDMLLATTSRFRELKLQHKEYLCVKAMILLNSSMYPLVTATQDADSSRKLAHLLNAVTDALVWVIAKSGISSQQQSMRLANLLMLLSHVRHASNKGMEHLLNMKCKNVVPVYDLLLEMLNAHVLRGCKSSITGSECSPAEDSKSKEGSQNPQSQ

As usually defined, the IC50 is the concentration needed to halve the response being measured. In the case of `N#Cc1cc(-c2ccc(O)cc2)cc2ccc(O)c(Cl)c12`, the IC50 in assay [1] came out at 6 nM; in assay [2] it was 109 nM.

For the compound `O=Cc1cc(-c2ccc(O)c(F)c2)cc2ccc(O)cc12`, the IC50 in assay [1] is 3.4 nM; in assay [2], 231 nM.

As to `Oc1ccc2cc(-c3ccccc3O)ccc2c1`, the half-inhibitory concentration (IC50) in assay [1] is 2000 nM; in assay [2], more than 5000 nM.

As for `CC#Cc1cc(O)cc2ccc(-c3ccc(O)c(F)c3)cc12`, the half-maximal inhibitory concentration (IC50) in assay [1] is 5.5 nM; in assay [2] it was 180 nM.

Compound `Oc1ccc2ccc(-c3ccccc3)cc2c1` gave a half-maximal inhibitory concentration (IC50) in assay [2] of 3400 nM.

In assay [2], `Cc1cc(O)ccc1-c1ccc2c(Cl)c(O)ccc2c1` displayed an IC50 of 40 nM.

Regarding `Oc1ccc(-c2ccc3c(Cl)c(O)ccc3c2)c(F)c1`, the results for the IC50 in assay [1] and in assay [2] were 1.2 nM and 58 nM, respectively.

`Oc1ccc(-c2ccc3c(F)c(O)ccc3c2)cc1`: the figures for the concentration for half-maximal inhibition (IC50) in assay [1] and in assay [2] were 7 nM and 77 nM, respectively.

As to `N#Cc1cc(O)cc2ccc(-c3ccc(O)cc3)cc12`, the IC50 in assay [1] came out at 2 nM; in assay [2] it was 84 nM.

As for `N#Cc1cc(O)c(Cl)c2ccc(-c3ccc(O)cc3)cc12`, the results for the IC50 in assay [1] and in assay [2] were 3 nM and 98 nM, respectively.

`Oc1ccc(-c2ccc3cc(O)ccc3c2)cc1`: the half-maximal inhibitory concentration (IC50) in assay [1] turned out to be 16.3 nM; in assay [2], 211 nM.

Consider `CCc1cc(O)cc2ccc(-c3ccc(O)c(F)c3)cc12`, for which the IC50 in assay [1] turned out to be 2.5 nM; in assay [2] it was 113 nM.

`Oc1ccc(-c2ccc3c(Br)c(O)ccc3c2)cc1`: the IC50 in assay [1] came out at 13 nM; in assay [2] it was 266 nM.

For `Oc1ccc(-c2ccc3cc(O)ccc3c2)c(F)c1`, the IC50 was found to be 2 nM in assay [1] and 24 nM in assay [2].

In the case of `O=Cc1cc(O)cc2ccc(-c3ccc(O)c(F)c3)cc12`, the IC50 in assay [1] is 1.1 nM; in assay [2], 73 nM.

In the case of `Oc1cccc(-c2ccc3ccc(O)cc3c2)c1`, the IC50 in assay [1] was 566 nM; in assay [2], 2640 nM.

As for `N#Cc1cc(-c2ccc(O)cc2)cc2ccc(O)c(Br)c12`, the 50% inhibitory concentration (IC50) in assay [1] is 12 nM; in assay [2] it was 131 nM.

In the case of `Oc1ccc(-c2cc(Cl)c3cc(O)ccc3c2)cc1`, the IC50 in assay [1] was found to be 2.3 nM; in assay [2], 30 nM.

`Oc1ccc(-c2ccc3c(O)cccc3c2)cc1` showed an IC50 in assay [1] of 5.8 nM. This counts as single-digit nanomolar.

For `Oc1ccc(-c2ccc3cc(O)ccc3c2)c(Cl)c1`, the IC50 in assay [1] was 1.4 nM.

As to `N#Cc1cc(O)c(C#N)c2ccc(-c3ccc(O)c(F)c3)cc12`, the IC50 in assay [1] came out at 28 nM; in assay [2], 877 nM.

As for `COc1cc(O)ccc1-c1ccc2cc(O)ccc2c1`, the half-maximal inhibitory concentration (IC50) in assay [2] came out at 174 nM.

On to `Oc1ccc(-c2ccc3c(-c4ccccc4)c(O)ccc3c2)cc1`, for which the IC50 in assay [1] came to 748 nM; in assay [2] it was 1230 nM.

As to `Oc1cccc(-c2ccc3cc(O)ccc3c2)c1`, the IC50 in assay [1] was determined as 30 nM.

Turning to `Oc1ccc(-c2cc(F)c3c(Cl)c(O)ccc3c2)cc1`, the IC50 in assay [1] was 1.1 nM; in assay [2], 40 nM.

Take `Oc1ccc2cc(-c3cc(F)c(O)c(F)c3)ccc2c1`: in assay [1], the IC50 was 8.4 nM. In other words, the single-digit nanomolar range.

Compound `Oc1ccc(-c2ccc3c(Cl)c(O)ccc3c2)cc1` displayed an IC50 in assay [2] of 91 nM.

Regarding `N#Cc1cc(-c2ccc(O)c(F)c2)cc2ccc(O)cc12`, the results for the Activity in assay [3] and in assay [4] were 0.45 mg/mL and 0.35 mg/mL, respectively. Also, the Weight in assay [5] stood at 23.3 mg; in assay [6], 81.9 mg.

Turning to `Oc1cc(F)c(-c2ccc3c(Cl)c(O)ccc3c2)c(F)c1`, the 50% inhibitory concentration (IC50) in assay [1] came to 3.4 nM; in assay [2], 35 nM.

With `Oc1ccc2cc(-c3ccc(O)c(Cl)c3)ccc2c1`, the IC50 stood at 11 nM in assay [1] and 107 nM in assay [2].

Take `Oc1ccc2cc(-c3ccc(O)c(F)c3)cc(F)c2c1`: the IC50 amounted to 1.5 nM in assay [1] and 21 nM in assay [2].

In the case of `C#Cc1cc(O)cc2ccc(-c3ccc(O)c(F)c3)cc12`, the IC50 in assay [1] was 1.2 nM; in assay [2] it was 73 nM.

For the compound `Oc1ccc(-c2ccc3ccc(O)cc3c2)cc1`, the IC50 was determined as 44 nM in assay [1] and 442 nM in assay [2].

Take `C#Cc1cc(-c2ccc(O)c(F)c2)cc2ccc(O)cc12`: the concentration for half-maximal inhibition (IC50) in assay [1] was found to be 6.3 nM; in assay [2], 247 nM.

As to `Oc1ccc2cc(-c3cc(F)c(O)c(F)c3)ccc2c1Cl`, the IC50 in assay [1] is 10.6 nM.

Consider `N#Cc1cc(O)cc2ccc(-c3ccc(O)c(F)c3)cc12`, for which the 50% inhibitory concentration (IC50) stood at 2.1 nM in assay [1] and 96 nM in assay [2].

On to `Cc1c(O)cc(C#N)c2cc(-c3ccc(O)c(F)c3)ccc12`, for which the IC50 in assay [1] was 6 nM; in assay [2], 406 nM.

Compound `Oc1ccc(-c2ccc3ccccc3c2)cc1` had an IC50 in assay [2] of 638 nM. This counts as sub-micromolar.

As to `Oc1cc(F)c(-c2ccc3c(Cl)c(O)ccc3c2)cc1F`, the concentration for half-maximal inhibition (IC50) in assay [1] stood at 8.5 nM; in assay [2] it was 118 nM.

Turning to `N#Cc1cc(O)c(Br)c2ccc(-c3ccc(O)c(F)c3)cc12`, the figures for the IC50 in assay [1] and in assay [2] were 4.5 nM and 116 nM, respectively.

As for `O=[N+]([O-])c1c(O)ccc2cc(-c3ccc(O)cc3)ccc12`, the IC50 in assay [1] turned out to be 199 nM; in assay [2], 709 nM.

`C=Cc1cc(O)cc2ccc(-c3ccc(O)c(F)c3)cc12`: the IC50 in assay [1] came to 7.3 nM; in assay [2], 527 nM.

Turning to `Oc1ccc(-c2ccc3c(Cl)c(O)ccc3c2)c(Cl)c1`, the IC50 in assay [1] worked out at 3.3 nM; in assay [2], 36 nM.

In the case of `N#Cc1cc(-c2c(F)cc(O)cc2F)cc2ccc(O)cc12`, the 50% inhibitory concentration (IC50) is 2.2 nM in assay [1] and 45 nM in assay [2].

`Oc1cccc(-c2ccc3c(O)cccc3c2)c1`: the IC50 in assay [1] was determined as 205 nM; in assay [2], 1450 nM.

Turning to `Oc1cc(F)c(-c2ccc3cc(O)ccc3c2)c(F)c1`, the figures for the IC50 in assay [1] and in assay [2] were 2.3 nM and 10.3 nM, respectively.

Consider `CCc1cc(-c2ccc(O)c(F)c2)cc2ccc(O)cc12`, for which the IC50 was found to be 2.4 nM in assay [1] and 235 nM in assay [2].

In assay [1], `Oc1ccc(-c2ccc3c(Cl)c(O)ccc3c2)cc1F` registered an IC50 of 4 nM.

Regarding `CC#Cc1cc(-c2ccc(O)c(F)c2)cc2ccc(O)cc12`, the IC50 in assay [1] came to 10 nM; in assay [2], 343 nM.

Consider `Oc1ccc2cc(-c3ccccc3)ccc2c1`, for which the IC50 in assay [1] was 374 nM; in assay [2] it was 1340 nM.

In turn, `Oc1ccc2cc(-c3ccc(O)c(F)c3)ccc2c1` had an IC50 in assay [1] of 5 nM.

For the compound `Oc1ccc(-c2cc(F)c3cc(O)ccc3c2)cc1`, the results for the IC50 in assay [1] and in assay [2] were 1.6 nM and 22 nM, respectively.

`C=Cc1cc(-c2ccc(O)c(F)c2)cc2ccc(O)cc12`: the figures for the IC50 in assay [1] and in assay [2] were 4.4 nM and 254 nM, respectively.

`N#Cc1cc(O)c(Cl)c2ccc(-c3ccc(O)c(F)c3)cc12`: the IC50 in assay [1] stood at 2.6 nM; in assay [2], 55 nM.

For the compound `Oc1ccc2cc(-c3cc(F)c(O)cc3F)ccc2c1`, the half-maximal inhibitory concentration (IC50) in assay [1] is 2.8 nM; in assay [2], 27 nM.

For `N#Cc1cc(-c2ccc(O)c(F)c2)cc2ccc(O)c(F)c12`, the IC50 in assay [1] came to 5.6 nM; in assay [2] it was 312 nM.

Regarding `N#Cc1cc(-c2cc(F)c(O)cc2F)cc2ccc(O)cc12`, the IC50 came to 6.9 nM in assay [1] and 186 nM in assay [2].

With `Oc1ccc(-c2cc(Cl)c3c(Cl)c(O)ccc3c2)cc1`, the IC50 worked out at 9 nM in assay [1] and 43 nM in assay [2].

Take `Cc1cc(O)ccc1-c1ccc2cc(O)ccc2c1`: the values for the IC50 in assay [1] and in assay [2] were 10 nM and 40 nM, respectively.

In the case of `N#Cc1cc(-c2ccc(O)cc2F)cc2ccc(O)cc12`, the results for the IC50 in assay [1] and in assay [2] were 0.5 nM and 26 nM, respectively.
